Patent US20190119284A1, “ErbB Inhibitors and Uses Thereof” (The Regents of the University of California, priority 2016, published 2019)

Experiments:
[1] = target: 2YF/3wt + NRG Ba/F3 cells (HER2YF/HER3wt) (Homo sapiens, UniProt P04626, Y1005F/Y1023F/Y1112F/Y1127F/Y1139F/Y1196F/Y1221F/Y1222F/Y1248F, cells depend on it); test: Ba/F3 proliferation assay, 2YF/3wt + NRG; type: cell-based; conditions: Tables 7 and 8; read-out: Ba/F3 line IC50, HER2YF/HER3 + NRG
From the text: Ba/F3 cells are normally dependent on IL-3 signaling for their proliferation and survival, but can be made dependent on introduced oncogenic signals. We sequentially selected transduced Ba/F3 cells for populations stably expressing HER3 and then HER2. To ensure that all of the proliferative signal could be attributed to HER2/HER3 heterodimers, rather than HER2 homodimers, the 9 C-terminal tyrosines in HER2 were mutated to phenylalanine (HER2YF). We then withdrew IL-3 and supplemented the media with NRG to select for NRG dependent HER2YF/HER3wt cells (2YF/3wt).
For the 2YF/3wt cells, the parental cells were first transduced with HER3 according to the protocol above and were then spun down at 500×g for 5 min and re-suspended in media supplemented with 10 ng/mL IL-3 and 3 μg/mL puromycin (Invitrogen). Cells were maintained in these conditions for seven days, passaging as required. After seven days the cells were spun down, washed with fresh media, and then used for a subsequent round of transduction according to the protocol above with HER2YF virus. […] The cells were maintained in these conditions for seven days, passaging as required. After seven days the cells were spun down, washed with fresh media, and then suspended in media supplemented with 10 ng/mL of NRG. Cells were maintained in these conditions for seven days to select for a NRG dependent population of 2YF/3wt Ba/F3 cells that were then maintained as described above. The same protocol was used for the 2YF-L755S/3wt, 2YF-YVMA/3wt, and 2YF-VC/3wt cell lines using the indicated constructs.
Proliferation Assays. […] The following day media was changed to fresh media that contained either DMSO or the indicated concentration of drug plus NRG (50 ng/mL final concentration) as indicated. […] For all normalized assays, proliferation was normalized to the DMSO control condition. All graphs were plotted in GraphPad Prism 6 and fit with a non-linear regression of the log(inhibitor) vs response with a variable slope where shown. All graphs are averages (+/−standard deviation) of biological triplicates each performed in technical triplicate unless otherwise noted. If only one biological replicate was performed standard deviations were derived from the technical replicates.

[2] = system: parental Ba/F3 cells + IL-3; test: Ba/F3 proliferation assay, Parental + IL-3; type: cell-based; conditions: Mus musculus, BaF3; Tables 7 and 8; read-out: Ba/F3 line IC50, Parental + IL-3
Description: (§1) To validate the screen and test the effectiveness of counter-screening with either the same 2YF/3wt Ba/F3 cell line or the parental Ba/F3's in the presence of IL-3 to remove cytotoxic primary hits, we first tested a panel of kinase inhibitors with established mechanisms of action.
(§2) Proliferation Assays. For adherent cell lines, cells were plated onto opaque white 96 well plates (Greiner cat #655083) and allowed to adhere overnight. The following day media was changed to fresh media that contained either DMSO or the indicated concentration of drug plus NRG (50 ng/mL final concentration) as indicated. Plates were incubated at 37° C. for 72 h and proliferation was read out using Cell Titer Glo (Promega) according to the manufacturer's protocol. For Ba/F3 cell proliferation, cells, drug dilution, and any necessary growth factors (10 ng/mL IL-3 or 6.25 ng/mL NRG) were combined in a well of a 96 well plate. Plates were incubated at 37° C. for 48 h and proliferation was read out using Cell Titer Glo according to the manufacturer's protocol. For all normalized assays, proliferation was normalized to the DMSO control condition. All graphs were plotted in GraphPad Prism 6 and fit with a non-linear regression of the log(inhibitor) vs response with a variable slope where shown. All graphs are averages (+/−standard deviation) of biological triplicates each performed in technical triplicate unless otherwise noted. If only one biological replicate was performed standard deviations were derived from the technical replicates.

Axl+ Ba/F3 cells = target: T1, Axl+ Ba/F3 cells (Homo sapiens, UniProt P30530); test: Ba/F3 proliferation assay, Axl+; type: cell-based; conditions: Tables 7 and 8; read-out: Ba/F3 line IC50, Axl+
T1 sequence (P30530 1-894): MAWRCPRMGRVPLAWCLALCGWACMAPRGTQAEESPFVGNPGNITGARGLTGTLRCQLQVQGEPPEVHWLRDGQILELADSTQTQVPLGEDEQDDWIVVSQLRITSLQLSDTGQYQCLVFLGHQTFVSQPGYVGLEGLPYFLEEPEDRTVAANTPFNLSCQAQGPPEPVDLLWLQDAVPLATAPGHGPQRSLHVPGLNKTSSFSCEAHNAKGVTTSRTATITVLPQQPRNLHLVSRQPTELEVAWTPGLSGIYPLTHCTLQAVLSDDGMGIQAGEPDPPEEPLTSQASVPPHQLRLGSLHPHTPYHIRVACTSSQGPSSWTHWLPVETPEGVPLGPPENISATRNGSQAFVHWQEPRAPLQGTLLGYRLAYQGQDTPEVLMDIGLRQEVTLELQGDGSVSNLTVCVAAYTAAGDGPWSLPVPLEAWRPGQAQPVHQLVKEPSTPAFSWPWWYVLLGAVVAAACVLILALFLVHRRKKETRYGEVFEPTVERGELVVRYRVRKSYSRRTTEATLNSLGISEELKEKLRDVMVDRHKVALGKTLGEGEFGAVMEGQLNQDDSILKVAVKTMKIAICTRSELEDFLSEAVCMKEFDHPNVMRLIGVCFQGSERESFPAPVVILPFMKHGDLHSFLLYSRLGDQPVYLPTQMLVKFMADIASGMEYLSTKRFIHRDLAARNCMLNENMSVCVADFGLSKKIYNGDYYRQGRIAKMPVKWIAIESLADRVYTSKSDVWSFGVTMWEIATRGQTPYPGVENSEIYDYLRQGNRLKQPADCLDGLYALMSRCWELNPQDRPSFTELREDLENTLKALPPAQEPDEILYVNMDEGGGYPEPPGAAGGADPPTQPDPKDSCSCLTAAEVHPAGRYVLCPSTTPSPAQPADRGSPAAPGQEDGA
Description: as §1
For Axl+ cells, the transduced cells were spun down at 500×g for 5 min and resuspended in media supplemented with 10 ng/mL IL-3 and 3 μg/mL puromycin (Invitrogen). Cells were maintained in these conditions for 7 days, passaging as required. After 7 days the cells were spun down, washed with fresh media, and then suspended in IL-3 free media. The cells were maintained in these conditions for 2 weeks to select for an IL-3 independent population of Axl+ driven cells.
as §2

HCC827 = HCC827 cell viability; type: cell-based; conditions: Homo sapiens, compound at 1 nM, n in the line below, read-out: HCC827 (% viable at 1 nM)
HER2+/2VE Ba/F3 line = test: Ba/F3 proliferation assay, HER2+/2VE; type: cell-based; conditions: Mus musculus, BaF3; Tables 7 and 8
Description: as §2

NCI-H1975 = NCI-H1975 cell proliferation; type: cell-based; conditions: Homo sapiens, Table 8, n in the line below
A431 = A431 cell proliferation; type: cell-based; conditions: Homo sapiens, A-431; Table 8; n in the line below
[3] = Mouse Liver Microsome stability assay; type: in vitro ADME; conditions: mouse liver microsomes

Sequence of 2YF/3wt + NRG Ba/F3 cells (HER2YF/HER3wt) (P04626 whole entry Y1005F/Y1023F/Y1112F/Y1127F/Y1139F/Y1196F/Y1221F/Y1222F/Y1248F): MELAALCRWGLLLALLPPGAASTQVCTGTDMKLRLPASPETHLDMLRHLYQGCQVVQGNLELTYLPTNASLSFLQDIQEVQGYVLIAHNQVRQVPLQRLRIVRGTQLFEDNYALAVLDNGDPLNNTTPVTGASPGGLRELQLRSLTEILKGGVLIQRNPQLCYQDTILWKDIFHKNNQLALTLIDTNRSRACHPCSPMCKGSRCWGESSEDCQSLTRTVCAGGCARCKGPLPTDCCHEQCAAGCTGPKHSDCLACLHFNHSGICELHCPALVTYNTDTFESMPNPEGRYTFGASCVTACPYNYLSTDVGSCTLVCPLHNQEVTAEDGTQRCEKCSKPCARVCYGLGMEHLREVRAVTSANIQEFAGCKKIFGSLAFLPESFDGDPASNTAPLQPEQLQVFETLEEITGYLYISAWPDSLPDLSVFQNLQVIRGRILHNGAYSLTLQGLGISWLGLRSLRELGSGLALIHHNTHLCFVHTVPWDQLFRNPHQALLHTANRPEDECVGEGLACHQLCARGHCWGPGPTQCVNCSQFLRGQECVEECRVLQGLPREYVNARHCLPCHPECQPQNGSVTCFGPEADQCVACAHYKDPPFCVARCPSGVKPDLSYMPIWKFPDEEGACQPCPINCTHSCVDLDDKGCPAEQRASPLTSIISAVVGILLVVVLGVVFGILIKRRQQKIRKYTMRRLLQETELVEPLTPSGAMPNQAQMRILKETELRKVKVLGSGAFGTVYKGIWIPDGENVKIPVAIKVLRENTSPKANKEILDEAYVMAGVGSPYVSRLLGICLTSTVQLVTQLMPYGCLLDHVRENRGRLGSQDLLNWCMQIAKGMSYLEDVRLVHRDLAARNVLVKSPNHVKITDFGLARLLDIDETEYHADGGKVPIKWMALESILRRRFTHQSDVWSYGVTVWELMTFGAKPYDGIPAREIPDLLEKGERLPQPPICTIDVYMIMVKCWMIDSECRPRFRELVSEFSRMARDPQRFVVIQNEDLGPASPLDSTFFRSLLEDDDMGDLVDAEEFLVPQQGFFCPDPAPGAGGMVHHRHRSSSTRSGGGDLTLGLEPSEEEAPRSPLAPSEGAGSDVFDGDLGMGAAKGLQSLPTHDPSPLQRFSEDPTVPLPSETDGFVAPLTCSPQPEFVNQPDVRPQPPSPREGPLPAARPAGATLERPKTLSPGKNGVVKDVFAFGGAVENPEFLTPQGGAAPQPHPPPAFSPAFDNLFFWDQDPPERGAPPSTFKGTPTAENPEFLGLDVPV

Compound	GI50 [1]	GI50 (Axl+ Ba/F3 cells)	IC50 (HER2+/2VE Ba/F3 line)	IC50 (NCI-H1975)	IC50 (A431)	WuXi Microsomal stability (Mouse Extraction Ratio) [3]	IC50 [2]	viability at 0.001 µM (HCC827)
CN(C)c1ccc(-c2ccsc2)cc1Nc1ncnc2[nH]nc(-c3ccn(C)n3)c12 [104B]	1.5 nM	1560 nM	46.4 nM	814 ± 59 nM	343 ± 169 nM	–	~2000 nM	25.2 ± 3.4%
COc1ccc(-c2cccs2)cc1Nc1ncnc2[nH]cc(-c3cc[nH]n3)c12 [8-092]	20.5 nM	1200 nM	232 nM	1900 ± 134 nM	762 ± 215 nM	–	> 3330 nM	81.6 ± 21.1%
COc1ccc(-c2ccsc2)cc1Nc1ncnc2[nH]cc(-c3cc[nH]n3)c12 [8-091]	9.25 nM	697 nM	120 nM	1420 ± 117 nM	634 ± 188 nM	–	2590 nM	80.9 ± 24%
COc1ccc(-c2ccoc2)cc1Nc1ncnc2[nH]cc(-c3cc[nH]n3)c12 [compound 178]	6.8 nM	1170 nM	70.3 nM	–	–	0.948	2540 nM	–

More lines, main results first:

GI50 [1]	GI50 (Axl+ Ba/F3 cells)	IC50 (HER2+/2VE Ba/F3 line)	IC50 (NCI-H1975)	IC50 (A431)	WuXi Microsomal stability (Mouse Extraction Ratio) [3]	Compound	IC50 [2]	viability at 0.001 µM (HCC827)
20.8 nM	1160 nM	118 nM	2250 ± 54 nM	914 ± 134 nM	–	COc1ccc(-c2ccccc2)cc1Nc1ncnc2[nH]cc(-c3cc[nH]n3)c12 [8-089]	2440 nM	99.9 ± 14.6%
5 nM	1310 nM	46.7 nM	1740 ± 157 nM	1120 ± 59 nM	–	COc1ccc(-c2ccccc2)cc1Nc1ncnc2[nH]cc(-c3ccn(C)n3)c12 [8-095]	> 3330 nM	49.2 ± 13.7%
